Laboratory results taken from patent US8454986B2, “Silver nanoparticles with specific surface area and a method for producing them” (Janssen Pharmaceutica N.V., priority 2008, dated 2013).

What was measured:
Format in all cases: cell-based
Candida albicans = experiment: Minimal inhibitory concentration, macrodilution method; conditions: yeast; 24 h, 30° C.
Excerpt: (§1) For the determination of the minimal inhibitory concentration (MIC) of nanosilver against different bacteria and fungi, i.e. the lowest concentration at which these micro-organisms show an inhibition of growth, the following protocol was used: • Journal of Antimicrobial Chemotherapy Supplement (JAC [2001] 48, Suppl. S1), March 2006, Chapter 2: Determination of minimal inhibitory concentrations; Macrodilution method.
(§2) Cultures of Staphylococcus aureus, Pseudomonas aeruginosa and Candida albicans were grown overnight and diluted to 150×10^6 bacterial cells or 5×10^6 yeast cells per mL (according to an optical density measured at 610 nm). These stock solutions were further diluted 500 times, […]. The final culture was then two times diluted in the final microtiter plate, resulting in a final dilution of 1:1000.
(§3) The test compound was diluted into the microtiter cultures at a concentration range from 0.5 to 470 mg/L Ag. The microtiter plates were then incubated at 30° C. on a shaker. After 24 h the plates were taken out of the incubation oven and growth was compared with the control row, both visually and by OD measurement at 610 nm.

Pseudomonas aeruginosa = experiment: as above; conditions: Gram negative; 24 h, 30° C.
Excerpt: as §1, §2, §3

Staphylococcus aureus = experiment: as above; conditions: Gram positive; 24 h, 30° C.
Excerpt: as §1, §2, §3

Aspergillus niger = experiment: Minimal inhibitory concentration, spore culture; conditions: mold

## O=[N+]([O-])[O-].[Ag+] [silver nitrate]
Candida albicans
  Minimal Inhibitory Concentration (MIC) Candida albicans: 12.5 mg Ag/L
Pseudomonas aeruginosa
  Minimal Inhibitory Concentration (MIC) Pseudomonas aeruginosa: 6.3 mg Ag/L
Staphylococcus aureus
  Minimal Inhibitory Concentration (MIC) staphylococcus aureus: 12.5 mg Ag/L
Aspergillus niger
  Minimal Inhibitory Concentration (MIC) Aspergillus niger: 25 mg Ag/L
